Data as given in US11603349B2, “Anti-fibrotic compounds” (Certa Therapeutics Pty Ltd, priority 2017, dated 2023).

What was measured:
[1] = system: TGF-β induced [14C]-proline incorporation in rat mesangial cells; test: [14C]-proline incorporation assay (collagen biosynthesis); type: cell-based; settings: Rattus norvegicus, Mesangial cell, 44 h
[2] = MTS tetrazolium reduction cell viability assay; settings: rat, rat mesangial cells (1097/IRMC cells), TGF-β1 stimulated, CC50 (μM), vs 1% DMSO vehicle
[3] = inhibition of TGF-β1 (1 ng/ml) induced [14C]-proline incorporation, IRMC cells

Row | SMILES | IC50 [1, 3] | CC50 at 48 h [2] | IC50 [1]
1 | C#CCOc1ccc(/C=C/C(=O)Nc2ccccc2C#N)cc1OC [Example 6, (E)-N-(2-cyanophenyl)-3-(3-methoxy-4-(prop-2-yn-1-yloxy)phenyl)acrylamide] | 11.4 µM | > 300 µM | –
2 | C#CCOc1ccc(/C=C/C(=O)Nc2ccccc2)cc1OC [Example 8, (E)-3-(3-methoxy-4-(prop-2-yn-1-yloxy)phenyl)-N-phenylacrylamide] | – | 109 µM | 5.33 µM
3 | C#CCOc1ccc(/C=C/C(=O)n2nc(O)c3ccccc32)cc1OC [Example 15, (E)-1-(3-hydroxy-1H-indazol-1-yl)-3-(3-methoxy-4-(prop-2-yn-1-yloxy)phenyl)prop-2-en-1-one] | 25.2 µM | 304 µM | –
4 | C#CCOc1ccc(/C=C/C(=O)Nc2ccccc2-c2nn[nH]n2)cc1OC [Example 16, (E)-N-(2-(2H-tetrazol-5-yl)phenyl)-3-(3-methoxy-4-(prop-2-yn-1-yloxy)phenyl)acrylamide] | 22.3 µM | 107 µM | –
5 | C#CCOc1ccc(/C=C/C(=O)Nc2ccccc2-c2ncon2)cc1OC [Example 17, (E)-N-(2-(1,2,4-oxadiazol-3-yl)phenyl)-3-(3-methoxy-4-(prop-2-yn-1-yloxy)phenyl)acrylamide] | 31.6 µM | > 300 µM | –
6 | C#CCOc1ccc(/C=C/C(=O)Nc2ccccc2-c2noc(C)n2)cc1OC [Example 18, (E)-3-(3-methoxy-4-(prop-2-yn-1-yloxy)phenyl)-N-(2-(5-methyl-1,2,4-oxadiazol-3-yl)phenyl)-acrylamide] | 17.2 µM | 151 µM | –
7 | C#CCOc1ccc(/C=C/C(=O)Nc2ccccc2-c2noc(=O)[nH]2)cc1OC [Example 19, (E)-3-(3-methoxy-4-(prop-2-yn-1-yloxy)phenyl)-N-(2-(5-oxo-4,5-dihydro-1,2,4-oxadiazol-3-yl)phenyl)acrylamide] | 19.7 µM | 122 µM | –
8 | C#CCOc1ccc(/C=C/C(=O)Nc2ccccc2-c2nnco2)cc1OC [Example 21, (E)-N-(2-(1,3,4-oxadiazol-2-yl)phenyl)-3-(3-methoxy-4-(prop-2-yn-1-yloxy)phenyl)acrylamide] | 25 µM | > 300 µM | –
9 | C#CCOc1ccc(/C=C/C(=O)Nc2ccccc2-c2cnn(C)c2)cc1OC [Example 22, (E)-3-(3-methoxy-4-(prop-2-yn-1-yloxy)phenyl)-N-(2-(1-methyl-1H-pyrazol-4-yl)phenyl)-acrylamide] | – | 240 µM | 16.4 µM
10 | C#CCOc1ccc(/C=C/C(=O)Nc2ccccc2-n2cnc(C)n2)cc1OC [Example 23, (E)-3-(3-methoxy-4-(prop-2-yn-1-yloxy)phenyl)-N-(2-(3-methyl-1H-1,2,4-triazol-1-yl)phenyl)acryl-amide] | 26.3 µM | 104 µM | –
11 | C#CCOc1ccc(/C=C/C(=O)Nc2ccccc2-c2cn[nH]c2)cc1OC [Example 24, (E)-N-(2-(1H-pyrazol-4-yl)phenyl)-3-(3-methoxy-4-(prop-2-yn-1-yloxy)phenyl)acrylamide] | 13 µM | 41.4 µM | –
12 | C#CCOc1ccc(/C=C/C(=O)Nc2ccccc2-c2c[nH]cn2)cc1OC [Example 25, (E)-N-(2-(1H-imidazol-4-yl)phenyl)-3-(3-methoxy-4-(prop-2-yn-1-yloxy)phenyl)acrylamide] | 45.5 µM | > 300 µM | –
13 | C#CCOc1ccc(/C=C/C(=O)Nc2ccccc2-c2cn(C)cn2)cc1OC [Example 26, (E)-3-(3-methoxy-4-(prop-2-yn-1-yloxy)phenyl)-N-(2-(1-methyl-1H-imidazol-4-yl)phenyl)acrylamide] | 13.5 µM | 190 µM | –
14 | C#CCOc1ccc(/C=C/C(=O)Nc2ccccc2C(=O)NS(C)(=O)=O)cc1OC [Example 27, (E)-2-(3-(3-methoxy-4-(prop-2-yn-1-yloxy)phenyl)acrylamido)-N-(methylsulfonyl)benzamide] | 21.4 µM | 120 µM | –
15 | C#CCOc1ccc(/C=C/C(=O)Nc2ccccc2-c2nc(C)no2)cc1OC [Example 28, (E)-3-(3-methoxy-4-(prop-2-yn-1-yloxy)phenyl)-N-(2-(3-methyl-1,2,4-oxadiazol-5-yl)phenyl)acryl-amide] | 11.6 µM | 146 µM | –
16 | C#CCOc1ccc(/C=C/C(=O)Nc2ccccc2-c2nnc(C)o2)cc1OC [Example 29, (E)-3-(3-methoxy-4-(prop-2-yn-1-yloxy)phenyl)-N-(2-(5-methyl-1,3,4-oxadiazol-2-yl)phenyl)-acrylamide] | 25.6 µM | > 300 µM | –
17 | C#CCOc1ccc(/C=C/C(=O)Nc2ccccc2C(=O)NCCN(C)C)cc1OC [Example 30, (E)-N-(2-(dimethylamino)ethyl)-2-(3-(3-methoxy-4-(prop-2-yn 1 yloxy)phenyl)acrylamido) benzamide] | 11.8 µM | 37.2 µM | –
18 | C#CCOc1ccc(/C=C/C(=O)Nc2ccccc2C(=O)Nc2nn[nH]n2)cc1OC [Example 31, (E)-2-(3-(3-methoxy-4-(prop-2-yn-1-yloxy)phenyl)acrylamido)-N-(2H-tetrazol-5-yl)benzamide] | 13.9 µM | > 300 µM | –
19 | C#CCOc1ccc(/C=C/C(=O)Nc2ccccc2C(=O)NCCCN(C)C)cc1OC [Example 32, (E)-N-(3-(dimethylamino)propyl)-2-(3-(3-methoxy-4-(prop-2-yn-1-yloxy)phenyl)acrylamido) benzamide] | 27.4 µM | 32 µM | –
20 | C#CCOc1ccc(/C=C/C(=O)Nc2ccccc2C(=O)NCCOC)cc1OC [Example 33, (E)-2-(3-(3-methoxy-4-(prop-2-yn-1-yloxy)phenyl)acrylamido)-N-(2-methoxyethyl)benzamide] | 29.2 µM | 199 µM | –
21 | C#CCOc1ccc(/C=C/C(=O)Nc2ccccc2C(=O)NCCN2CCN(C)CC2)cc1OC [Example 34, (E)-2-(3-(3-methoxy-4-(prop-2-yn-1-yloxy)phenyl)acrylamido)-N-(2-(4-methylpiperazin-1-yl)ethyl)benzamide] | 28.4 µM | 37.3 µM | –
22 | C#CCOc1ccc(/C=C/C(=O)Nc2ccccc2C(=O)NCCN2CCOCC2)cc1OC [Example 35, (E)-2-(3-(3-methoxy-4-(prop-2-yn-1-yloxy)phenyl)acrylamido)-N-(2-morpholinoethyl)benzamide] | 37.4 µM | 301 µM | –
23 | C#CCOc1ccc(/C=C/C(=O)Nc2ccccc2C(=O)NC2CCN(C)CC2)cc1OC [Example 36, (E)-2-(3-(3-methoxy-4-(prop-2-yn-1-yloxy)phenyl)acrylamido)-N-(1-methylpiperidin-4-yl)benzamide] | 15.8 µM | 15.2 µM | –
24 | C#CCOc1ccc(/C=C/C(=O)Nc2ccccc2C(=O)NCC2CCN(C)CC2)cc1OC [Example 37, (E)-2-(3-(3-methoxy-4-(prop-2-yn-1-yloxy)phenyl)acrylamido)-N-((1-methylpiperidin-4-yl)methyl)benzamide] | 18 µM | 29.2 µM | –

The remaining compounds from weak to strong by IC50 [1, 3], led by results:

Row | IC50 [1, 3] | SMILES | CC50 at 48 h [2] | IC50 [1]
25 | 10.9 µM | C#CCOc1ccc(/C=C/C(=O)Nc2ccccc2F)cc1OC [Example 1, (E)-N-(2-fluorophenyl)-3-(3-methoxy-4-(prop-2-yn-1-yloxy)phenyl)acrylamide] | > 300 µM | –
26 | 10.6 µM | C#CCOc1ccc(/C=C/C(=O)Nc2ccccc2C)cc1OC [Example 5, (E)-3-(3-methoxy-4-(prop-2-yn-1-yloxy)phenyl)-N-(o-tolyl)acrylamide] | 369 µM | –
27 | 10.4 µM | C#CCOc1ccc(/C=C/C(=O)Nc2ccccc2-c2n[nH]c(C)n2)cc1OC [Example 2, (E)-3-(3-methoxy-4-(prop-2-yn-1-yloxy)phenyl)-N-(2-(5-methyl-1H-1,2,4-triazol-3-yl)phenyl)acrylamide] | > 300 µM | –
28 | 10.4 µM | C#CCOc1ccc(/C=C/C(=O)N2CCC(O)c3ccccc32)cc1OC (stereo not shown) [Example 14, (E)-1-(4-hydroxy-3,4-dihydroquinolin-1(2H)-yl)-3-(3-methoxy-4-(prop-2-yn-1-yloxy)phenyl)prop-2-en-1-one] | 48.9 µM | –
29 | 10.2 µM | C#CCOc1ccc(/C=C/C(=O)N2CCOc3ccccc32)cc1OC [Example 12, (E)-1-(2,3-dihydro-4H-benzo[b][1,4]oxazin-4-yl)-3-(3-methoxy-4-(prop-2-yn-1-yloxy)phenyl)prop-2-en-1-one] | 335 µM | –
30 | 7.07 µM | C#CCOc1ccc(/C=C/C(=O)N2CCNc3ccccc32)cc1OC [Example 11, (E)-1-(3,4-dihydroquinoxalin-1(2H)-yl)-3-(3-methoxy-4-(prop-2-yn-1-yloxy)phenyl)prop-2-en-1-one] | 104 µM | –
31 | 6.04 µM | C#CCOc1ccc(/C=C/C(=O)N2CCCc3ccccc32)cc1OC [Example 10, (E)-1-(3,4-dihydroquinolin-1(2H)-yl)-3-(3-methoxy-4-(prop-2-yn-1-yloxy)phenyl)prop-2-en-1-one] | 66.4 µM | –
32 | 4.32 µM | C#CCOc1ccc(/C=C/C(=O)Nc2ccccc2Br)cc1OC [Example 4, (E)-N-(2-bromophenyl)-3-(3-methoxy-4-(prop-2-yn-1-yloxy)phenyl)acrylamide] | 323 µM | –
33 | 3.94 µM | C#CCOc1ccc(/C=C/C(=O)Nc2ccccc2Cl)cc1OC [Example 3, (E)-N-(2-chlorophenyl)-3-(3-methoxy-4-(prop-2-yn-1-yloxy)phenyl)acrylamide] | 71.1 µM | –
34 | 1.97 µM | C#CCOc1ccc(/C=C/C(=O)Nc2ccc(Cl)c(Cl)c2)cc1OC [Example 7, (E)-N-(3,4-dichlorophenyl)-3-(3-methoxy-4-(prop-2-yn-1-yloxy)phenyl)acrylamide] | 62.5 µM | –
35 | 1.94 µM | C#CCOc1ccc(/C=C/C(=O)N2CCC(C(=O)OC)c3ccccc32)cc1OC (stereo not shown) [Example 9, methyl (E)-1-(3-(3-methoxy-4-(prop-2-yn-1-yloxy)phenyl)acryloyl)-1,2,3,4-tetrahydroquinoline-4-carboxylate] | 25.5 µM | –
